Experimental data as given in PubChem BioAssay AID248 (DTP/NCI, 2004).
Several values for one entry are separate records, joined by “and”; a condition that tells them apart may be missing. Equal entries are not always repeated. Toxic doses and inconclusive results are not listed. Cut-off read from the data, not from the text of the source: active = T/C of 150% or more; inactive = T/C below 125%.

System: L1210 leukemia ip in BDF1 mice, survival T/C
Assay: NCI In Vivo Anticancer Drug Screen. Data for tumor model L1210 Leukemia (intraperitoneal) in B6D2F1 (BDF1) mice
Details: endpoint: mean survival time, higher = longer survival
Summary of the method: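 Value reflects the ratio of survival in compound-treated mice to survival in vehicle-treated controls, with both groups carrying the same transplanted tumor.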

[1] = dose: 100.0 mg/kg/injection, schedule: Q01DX009 (ip), vehicle: Klucel (hydroxypropylcellulose) (HPC)
[2] = dose: 100.0 mg/kg/injection, schedule: Q04DX003 (ip), vehicle: Klucel (hydroxypropylcellulose) (HPC)
[3] = dose: 200.0 mg/kg/injection, schedule: Q01DX009 (ip), vehicle: Klucel (hydroxypropylcellulose) (HPC)
[4] = dose: 100.0 mg/kg/injection, schedule: Q04DX003 (ip), vehicle: saline with Tween-80
[5] = dose: 200.0 mg/kg/injection, schedule: Q04DX003 (ip), vehicle: saline with Tween-80
[6] = dose: 400.0 mg/kg/injection, schedule: Q04DX003 (ip), vehicle: saline with Tween-80
[7] = dose: 100.0 mg/kg/injection, schedule: Q04DX002 (ip), vehicle: saline
[8] = dose: 200.0 mg/kg/injection, schedule: Q04DX002 (ip), vehicle: saline
[9] = dose: 400.0 mg/kg/injection, schedule: Q04DX002 (ip), vehicle: saline
[10] = dose: 50.0 mg/kg/injection, schedule: Q04DX003 (ip), vehicle: saline
[11] = dose: 100.0 mg/kg/injection, schedule: Q01DX001 (ip), vehicle: saline
[12] = dose: 100.0 mg/kg/injection, schedule: Q04DX003 (ip), vehicle: saline
[13] = dose: 200.0 mg/kg/injection, schedule: Q01DX001 (ip), vehicle: saline
[14] = dose: 400.0 mg/kg/injection, schedule: Q01DX001 (ip), vehicle: saline
[15] = dose: 25.0 mg/kg/injection, schedule: Q01DX009 (ip), vehicle: saline

Measured: T/C

COc1ccc(OC)c(NCCCN2C(=O)c3ccccc3C2=O)c1
inactive: dose: 100.0 mg/kg/injection, schedule: Q04DX002 (ip), vehicle: Klucel (hydroxypropylcellulose) (HPC) 87 % of control | dose: 200.0 mg/kg/injection, schedule: Q04DX002 (ip), vehicle: Klucel (hydroxypropylcellulose) (HPC) 102 % of control | dose: 400.0 mg/kg/injection, schedule: Q04DX002 (ip), vehicle: Klucel (hydroxypropylcellulose) (HPC) 91 % of control

ClCCCCCCCCCCCl
inactive: [1] 94 % of control and 97 % of control | [2] 97 % of control | [3] 94 % of control and 102 % of control | dose: 200.0 mg/kg/injection, schedule: Q04DX003 (ip), vehicle: Klucel (hydroxypropylcellulose) (HPC) 92 % of control | dose: 400.0 mg/kg/injection, schedule: Q01DX009 (ip), vehicle: Klucel (hydroxypropylcellulose) (HPC) 92 % of control | dose: 400.0 mg/kg/injection, schedule: Q04DX003 (ip), vehicle: Klucel (hydroxypropylcellulose) (HPC) 99 % of control

O=C(O)CCC(=O)/C=C1/Nc2ccccc2C1=O
inactive: [4] 88 % of control | [5] 90 % of control | [6] 88 % of control

CC(=O)[O][Hg][CH]1CCCCC1O (centres undefined)
inactive: dose: 5.0 mg/kg/injection, schedule: Q01DX001 (ip), vehicle: saline 103 % of control | dose: 10.0 mg/kg/injection, schedule: Q01DX001 (ip), vehicle: saline 95 % of control | dose: 12.3 mg/kg/injection, schedule: Q01DX009 (ip), vehicle: saline with Tween-80 106 % of control | dose: 20.0 mg/kg/injection, schedule: Q01DX001 (ip), vehicle: saline 97 % of control | dose: 40.0 mg/kg/injection, schedule: Q01DX001 (ip), vehicle: saline 95 % of control | dose: 80.0 mg/kg/injection, schedule: Q01DX001 (ip), vehicle: saline 102 % of control

CSc1ccc(OCC2CO2)cc1C (centres undefined)
inactive: [7] 96 % of control | [8] 111 % of control | [9] 104 % of control

CC(C)=CCC/C(C)=C\CCl
inactive: dose: 25.0 mg/kg/injection, schedule: Q01DX009 (ip), vehicle: saline with Tween-80 93 % of control | dose: 50.0 mg/kg/injection, schedule: Q01DX009 (ip), vehicle: saline with Tween-80 106 % of control | dose: 100.0 mg/kg/injection, schedule: Q01DX009 (ip), vehicle: saline with Tween-80 97 % of control and 101 % of control | [4] 104 % of control | [5] 93 % of control | [6] 90 % of control

NCCSCC(N)C(=O)O (centres undefined)
inactive: [7] 92 % of control | [8] 92 % of control | [9] 109 % of control

O=C(CCC(=O)c1ccccc1)c1ccccc1
inactive: dose: 100.0 mg/kg/injection, schedule: Q01DX001 (ip), vehicle: saline with Tween-80 100 % of control | dose: 200.0 mg/kg/injection, schedule: Q01DX001 (ip), vehicle: saline with Tween-80 98 % of control | dose: 400.0 mg/kg/injection, schedule: Q01DX001 (ip), vehicle: saline with Tween-80 95 % of control

CCOc1ccccc1NC(=O)c1ccc(Cl)cc1Cl
inactive: dose: 50.0 mg/kg/injection, schedule: Q01DX009 (ip), vehicle: Klucel (hydroxypropylcellulose) (HPC) 92 % of control | [1] 92 % of control | [2] 89 % of control | [3] 86 % of control

S=c1ssc2ccccc12
inactive: [10] 100 % of control | [11] 94 % of control and 96 % of control | [12] 97 % of control | [13] 94 % of control and 101 % of control | dose: 200.0 mg/kg/injection, schedule: Q04DX003 (ip), vehicle: saline 97 % of control | [14] 98 % of control

O=C(C=C(C(F)(F)F)C(F)(F)F)c1cccs1
inactive: dose: 3.12 mg/kg/injection, schedule: Q01DX009 (ip), vehicle: saline 101 % of control | dose: 6.25 mg/kg/injection, schedule: Q01DX009 (ip), vehicle: saline 101 % of control | dose: 12.5 mg/kg/injection, schedule: Q01DX009 (ip), vehicle: saline 101 % of control | dose: 12.5 mg/kg/injection, schedule: Q04DX003 (ip), vehicle: saline 93 % of control | [15] 110 % of control | dose: 25.0 mg/kg/injection, schedule: Q04DX003 (ip), vehicle: saline 97 % of control | [10] 93 % of control | [12] 98 % of control

C=CCN(CC=C)CC=C
inactive: [15] 100 % of control | dose: 50.0 mg/kg/injection, schedule: Q01DX009 (ip), vehicle: saline 97 % of control | dose: 100.0 mg/kg/injection, schedule: Q01DX009 (ip), vehicle: saline 100 % of control

N[C@H](Cc1c[nH]c2ccccc12)C(=O)O
inactive: dose: 100.0 mg/kg/injection, schedule: Q01DX009 (ip), vehicle: acetone 95 % of control | dose: 200.0 mg/kg/injection, schedule: Q01DX009 (ip), vehicle: acetone 104 % of control | dose: 400.0 mg/kg/injection, schedule: Q01DX009 (ip), vehicle: acetone 102 % of control | dose: 800.0 mg/kg/injection, schedule: Q01DX009 (ip), vehicle: acetone 95 % of control

O=C(c1ccccc1)C(C(=O)c1ccccc1)C(c1ccccc1)C(C(=O)c1ccccc1)C(c1ccccc1)c1ccccc1 (centres undefined)
inactive: [11] 87 % of control | [13] 89 % of control | [14] 92 % of control and 91 % of control

CCOCCN1CCN(CCCN2c3ccccc3Sc3ccc(C(F)(F)F)cc32)CC1
inactive: dose: 0.19 mg/kg/injection, schedule: Q01DX009 (ip), vehicle: water 95 % of control | dose: 0.39 mg/kg/injection, schedule: Q01DX009 (ip), vehicle: water 98 % of control | dose: 0.78 mg/kg/injection, schedule: Q01DX009 (ip), vehicle: water 111 % of control | dose: 1.56 mg/kg/injection, schedule: Q01DX009 (ip), vehicle: water 110 % of control | dose: 22.0 mg/kg/injection, schedule: Q04DX003 (ip), vehicle: other 122 % of control | dose: 100.0 mg/kg/injection, schedule: Q04DX003 (ip), vehicle: water 98 % of control

Nc1nc(N)c2cc(NCc3ccc(F)cc3)ccc2n1
inactive: dose: 3.13 mg/kg/injection, schedule: Q01DX009 (ip), vehicle: saline with Tween-80 90 % of control | dose: 6.25 mg/kg/injection, schedule: Q01DX009 (ip), vehicle: saline with Tween-80 92 % of control | dose: 6.25 mg/kg/injection, schedule: Q04DX003 (ip), vehicle: saline with Tween-80 100 % of control | dose: 12.5 mg/kg/injection, schedule: Q01DX009 (ip), vehicle: saline with Tween-80 97 % of control

O=[N+]([O-])c1ccc(OCn2ncc3ccc([N+](=O)[O-])cc32)cc1
inactive: dose: 100.0 mg/kg/injection, schedule: Q01DX001 (ip), vehicle: carboxymethylcellulose (CMC) 93 % of control | dose: 200.0 mg/kg/injection, schedule: Q01DX001 (ip), vehicle: carboxymethylcellulose (CMC) 98 % of control | dose: 400.0 mg/kg/injection, schedule: Q01DX001 (ip), vehicle: carboxymethylcellulose (CMC) 88 % of control

COc1ccc([N+](=O)[O-])cc1CNCCCl
inactive: dose: 100.0 mg/kg/injection, schedule: Q01DX001 (ip), vehicle: Klucel (hydroxypropylcellulose) (HPC) 100 % of control | dose: 400.0 mg/kg/injection, schedule: Q01DX001 (ip), vehicle: Klucel (hydroxypropylcellulose) (HPC) 94 % of control

O=C(NNc1ccccc1)c1ccc(Cl)cc1
inactive: dose: 100.0 mg/kg/injection, schedule: Q04DX002 (ip), vehicle: gum acacia 112 % of control | dose: 200.0 mg/kg/injection, schedule: Q04DX002 (ip), vehicle: gum acacia 87 % of control | dose: 400.0 mg/kg/injection, schedule: Q04DX002 (ip), vehicle: gum acacia 102 % of control
